Data as given in publication PMC5517430, “2,3,7,8-Tetrachlorodibenzo-p-dioxin (TCDD)-elicited effects on bile acid homeostasis: Alterations in biosynthesis, enterohepatic circulation, and microbial metabolism” (Scientific Reports, 2017).
Where “and” joins values, the source holds several entries; their conditions need not be identical. Equal values may be shown once.

Legend:
Format in all cases: in vivo, mouse
[1] = system: gallbladder of male C57BL/6 mice; experiment: Gallbladder volume (micro-caliper, ellipsoid); conditions: 30 µg/kg TCDD every 4 d for 28 d
Procedure: At 25d after the initial dose (PND53), fecal pellets from the previous 24 hours (h) were collected from each cage (4 mice per cage) and stored at −80 °C. At 28d after the initial exposure (PND56), mice (fasted for 6 h) were weighed and blood was collected from the submandibular vein prior to cervical dislocation. The gallbladder length, width, and depth were measured using a micro-caliper. Its volume was calculated assuming an ellipsoid shape: volume (µL) = length (mm) × width (mm) × depth (mm) × π/6[63], [64]. The distal ileum (10 cm section extending from the caecum toward the jejunum) was removed, flushed with Ca^2+/Mg^2+-free phosphate buffered saline (PBS; Sigma), and opened longitudinally. The epithelial lining was scraped into a vial containing TRIzol (Invitrogen, Carlsbad, CA), frozen in liquid nitrogen, and stored at −80 °C. Liver, gonadal white adipose tissue (gWAT), and brown adipose tissue were removed, weighed, frozen in liquid nitrogen, and stored at −80 °C. Serum alkaline phosphatase (ALP) activity was determined using a commercial kit (Pointe Scientific, Canton, MI).

[2] = system: AhR; experiment: Hepatic AhR ChIP-Seq (AhR genomic enrichment)
Procedure: Putative dioxin response elements (pDREs) with matrix similarity scores (MSS) ≥ 0.856 were previously identified. ChIP-Seq was previously performed on liver samples from male C57BL/6 mice 2 h after a single bolus oral gavage of 30 µg/kg TCDD[33], [70]. Briefly, cross-linked DNA was immunoprecipitated with either rabbit IgG or anti-AhR (H-211, sc-5579; Santa Cruz, CA). Libraries were prepared using the MicroPlex kit (Diagenode), pooled, and sequenced at a depth of a ~30 M on an Illumina HiSeq 2500 at the MSU RTSF Genomics Core. Reads were mapped to the mouse reference genome (GRCm38 release 81) using Bowtie 2.0.0 and alignments converted to SAM format using SAMTools v0.1.2. Normalization and peak calling was performed using CisGenome[71], by comparing IgG control and AhR enriched samples (n = 5) using a bin size (−b) of 25 and boundary refinement resolution (−bw) of 1 with default parameters.

[3] = system: bile acids; experiment: HRAM-LC-MS analysis of bile acids in liver, serum and feces; conditions: male mice
Procedure: Serum (10 µL) was added to 10 µL of a 20 ng/µL stock solution of deuterated (d4) glycochenodeoxycholic acid (GCDCA, from Steraloids, Inc.) in methanol, and extracted with ice-cold methanol as previously described. Frozen liver samples (50 mg) or dried fecal pellets (50 mg) were combined with 10 µL of 20 ng/µL d4-GCDCA stock solution and 1.0 mL of ice-cold methanol, and homogenized with 0.5 mm zirconium oxide beads using an air-cooled Bullet Blender (NextAdvance). Extracts were dried under vacuum, reconstituted in 2.0 mL of 50% methanol, filtered through 0.2 µm nylon membranes (Pall Life Sciences), and stored at −80 °C.
Bile acids were analyzed by high resolution/accurate mass (HRAM)-LC-MS using an Agilent 1260 capillary HPLC coupled to a Thermo Scientific LTQ-Orbitrap Velos mass spectrometer. Extracts (2 µL) were injected into water containing 0.1% formic acid, and loaded onto an inline peptide Opti-Trap (Optimize Technologies) for 3.0 min at 5 µL/min for desalting and concentration. Bile acids were then eluted by a 30 min water/acetonitrile gradient from 98% water containing 0.1% formic acid to 95% acetonitrile containing 0.1% formic acid (modified from ref. [73]) and separated by a ProntoSil C18AQ 200 µm × 50 mm, 3 u column (nanoLCMS Solutions) at a flow rate of 2 µL/min. The column eluent was introduced to the LTQ-Orbitrap Velos mass spectrometer by an Advance nano-ESI source (Michrom BioResources) at a spray voltage of −1.7 kV. High resolution (R = 100,000 at 400 m/z) negative ion mass spectra were collected over 300–900 m/z. The ion transfer tube of the mass spectrometer was maintained at 250 °C, and the S-lens was set to 50%. Appropriate sample dilution factors were determined empirically to ensure a linear range of detector response. Chromatographic peak alignment, feature detection, quantitation and bile acid identification were performed using MAVEN[75] and SECD-LIMSA[76] software. All bile acids were identified by comparison of retention time and accurate mass data against reference standards. Relative quantitation was performed against the deuterated GCDCA internal standard. TCDD-elicited changes in bile acid species are reported as fold changes relative to vehicle controls.

[4] = system: male C57BL/6 mice; experiment: Whole gut transit time with carmine red dye
Procedure: At 27d after the initial dose (PND55), whole gut transit time (WGTT) was determined using carmine red dye, which cannot be intestinally absorbed. At time 0 (t0), mice were orally gavaged with 150 µL of carmine red solution (6% carmine red dye suspended in 0.5% methylcellulose). Fecal pellets were monitored continuously for the presence of carmine red. WGTT represents the time interval between t0 and the first observance of carmine red dye in the fecal pellets.

[5] = male mouse liver, 2 h after single oral gavage of 30 µg/kg TCDD
[6] = liver, 10 µg/kg TCDD every 4 d for 28 d, relative to vehicle
[7] = liver, 30 µg/kg TCDD every 4 d for 28 d, relative to vehicle
[8] = liver, dose not stated, 3–30 µg/kg TCDD
[9] = liver, dose-dependent, 3–30 µg/kg TCDD
[10] = serum, 30 µg/kg TCDD every 4 d for 28 d, relative to vehicle

Clc1cc2c(cc1Cl)Oc1cc(Cl)c(Cl)cc1O2 [TCDD, 2,3,7,8-tetrachlorodibenzo-p-dioxin]
Gallbladder volume, fold increase compared to controls [1]: 2.5 fold
Slc6a6 (TAUT) AhR Binding? ([2]; liver): YES
Slc10a1 (NTCP or LBAT) AhR Binding? ([2]; liver): YES
Slco2b1 (OATP2B1) AhR Binding? ([2]; liver): YES
Soat1 AhR Binding? ([2]; liver): YES
Soat2 AhR Binding? ([2]; liver): YES
Sqle AhR Binding? ([2]; liver): YES
Srebf2 AhR Binding? ([2]; liver): YES
Tm7sf2 AhR Binding? ([2]; liver): YES
AhR binding within Cyp8b1, fold enrichment [2, 5]: 2.2 fold
AhR genomic binding at Cyp7a1, fold enrichment [2, 5]: 2.3 fold
AhR genomic binding at the Hmgcr loci, fold increase [2, 5]: 10.3 fold
Deoxycholic acid disulfate DCA-di-SO4, Fold Change FECES ([3]; feces, 30 µg/kg TCDD, relative to vehicle, n = 2 cages): 4.9 fold
Taurolithocholic acid TLCA, Fold Change FECES ([3]; feces, 30 µg/kg TCDD, relative to vehicle, n = 2 cages, ∞ = detected in treated animals but not controls): undetectable in controls to detectable in treated mice
Fecal cholic acid 7-sulfate (CA-7-SO4), fold decrease ([3]; feces, 30 µg/kg TCDD): 55.2 fold
Fecal taurocholic acid 3-sulfate (TCA-3-SO4), fold decrease ([3]; feces, 30 µg/kg TCDD): 10.3 fold
Fecal α-MCA, fold decrease ([3]; feces, 30 µg/kg TCDD): 10.3 fold
Total fecal bile acids, fold decrease ([3]; feces, 30 µg/kg TCDD): 2.8 fold
Taurolithocholic acid TLCA, Fold Change LIVER [3, 6]: 72.1 fold
Total Bile Acids, Fold Change LIVER [3, 6]: 2.1 fold
Cholic acid CA, Fold Change LIVER [3, 7]: 4.7 fold
Taurolithocholic acid TLCA, Fold Change LIVER [3, 7]: > 200 fold and 233.8 fold
Total Bile Acids, Fold Change LIVER [3, 7]: 4.6 fold
Effect on hepatic CDCA ([3]; liver, 3–30 µg/kg TCDD): no effect
Effect on hepatic α/β-MCA ([3]; liver, 3–30 µg/kg TCDD): no effect
Hepatic glycocholic acid (GCA), fold increase [3, 8]: 3.9 fold
Hepatic tauro-α-muricholic acid (T-α-MCA), fold increase [3, 8]: 3.7 fold
Hepatic taurocholic acid (TCA), fold increase [3, 8]: 9.7 fold
Total hepatic conjugated primary bile acid levels, max fold increase [3, 9]: 4.7 fold
Total hepatic levels of conjugated secondary bile acids, max fold increase [3, 9]: 77.7 fold
Cholic acid CA, Fold Change SERUM [3, 10]: 58.2 fold
Deoxycholic acid DCA, Fold Change SERUM [3, 10]: 79.7 fold
Glycocholic acid GCA, Fold Change SERUM [3, 10]: 134.4 fold
Muricholic acid (α) α-MCA, Fold Change SERUM [3, 10]: 97.0 fold
Muricholic acid (β) β-MCA, Fold Change SERUM [3, 10]: 52.8 fold
Taurocholic acid TCA, Fold Change SERUM [3, 10]: 298.9 fold
Total Bile Acids, Fold Change SERUM [3, 10]: 45.4 fold
Whole gut transit time ([4]; 30 µg/kg TCDD every 4 d, 27 d after initial dose, controls 2.5 h): 4.1 h
Reduction in gut motility ([4]; 30 µg/kg TCDD vs controls): 1.6 fold
